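The compound was tested at five concentrations on cells cultured in 96-well plates, with a 48-hour exposure period. Abbreviation: GI50, concentration required for 50% inhibition of growth. TGI is the concentration that stops growth completely.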

In the first test the test system is SF-295 CNS. Briefly: NCI tumour cell line growth inhibition, 48 h.
`COc1cc2c(NCCCCCCO[N+](=O)[O-])ncnc2c(OC)c1OC`: the TGI is 58.8 µM.
`CN1CCCNCCN(CCc2ccccn2)CCCN(C)CC1` gave a TGI greater than 100 µM.
`COc1ccc(CNC(=O)COc2ccc(/C=N/Nc3nc4ccccc4s3)cc2)cc1`: the GI50 was 3.25 µM and the TGI amounted to 11.2 µM.
On to `N#Cc1cnn2ccn(C3OC(COC(=O)c4ccccc4)C(OC(=O)c4ccccc4)C3OC(=O)c3ccccc3)c12` (centres undefined), for which the TGI is greater than 21.5 µM.
Regarding `C[C@]12CCC(=O)C=C1CC[C@@H]1C2CC[C@]2(C)NC(=O)C(C#N)CC12` (some centres undefined), the TGI is greater than 100 µM.
On to `CN(C)c1ccc2c(c1)oc(=O)c1ccccc12`, for which the TGI came out at 48.2 µM.
On to `COC(=O)C(CC(=O)c1cc2c(cc1I)OCO2)Cc1cc(OC)c(OC)c(OC)c1I` (centres undefined), for which the TGI was greater than 100 µM.
For `O=C(Nc1ccccc1[N+](=O)[O-])c1ccccc1`, the TGI was greater than 100 µM.
The same measure, in the same setting: the figure for `COc1cc2c(cc1O)[C@H](Cc1ccc(Oc3cc(C[C@H]4c5cc(OC)c(OC)cc5CCN4C)ccc3OC)cc1)NCC2` is 24.2 µM.
For `Fc1ccc(-c2nn(-c3ccccc3)cc2-c2nc3ccccc3o2)cc1`, the GI50 is 2.32 µM and the TGI was determined as 8.3 µM.
In turn, `CN(C)S(=O)(=O)Nc1ccccn1` gave a TGI greater than 100 µM.
Compound `CN(C)CCNC(=O)c1cccc2nc3c(Cl)cccc3nc12` showed a TGI greater than 27.1 µM.
As for `COc1nc2c(cc1S(=O)(=O)c1ccccc1)CCc1c-2cnn1-c1ccccc1Cl`, the GI50 was 5.72 µM and the TGI is greater than 100 µM.

Another test has as its system HL-60(TB) leukemia. Briefly: NCI tumour cell line growth inhibition, 48 h.
As to `NC1(CCCCCCCCCCC(=O)O)CNCCNCCNCCNC1`, the TGI was determined as 47.5 µM.
`C1CN2N3CCCC23C1` (centres undefined) yielded a TGI greater than 100 µM.
Regarding `CC[n+]1ccc2c(c1)C(=O)c1nccc3c1c-2nc1ccccc13`, the GI50 was 5.79 µM and the TGI was 16.9 µM.
For the compound `NNC(=O)c1cnn(-c2ccnc3c(C(F)(F)F)cccc23)c1N`, the GI50 is greater than 100 µM and the TGI was greater than 100 µM.
In turn, `CC(=O)OCCc1cccnc1/C=N/O` returned a TGI greater than 100 µM.
For the compound `Cc1c(Cl)cccc1Nc1ncccc1C(=O)O`, the GI50 was greater than 100 µM and the TGI is greater than 100 µM.
Compound `CCC1CCC2CCCC(C)N12` (centres undefined) displayed a TGI greater than 100 µM.
`CN(C)c1ccc(/C=C2\C[N+](C)(C)C/C(=C\c3ccc(N(C)C)cc3)C2=O)cc1`: the TGI stood at 13.1 µM.
The same measure, in the same setting: the figure for `O=C1CC[C@H]2CNC(=O)C[C@H]2C1` is greater than 100 µM; for `C#CC(C)(C)Oc1cc(O)c2c(=O)c3ccccc3n(C)c2c1` it is greater than 100 µM; for `COc1cc2c(NCCCCCCO[N+](=O)[O-])ncnc2c(OC)c1OC` it is 54.8 µM.
`CN1CCCNCCN(CCc2ccccn2)CCCN(C)CC1` gave a TGI greater than 63.6 µM.
Consider `COc1ccc(CNC(=O)COc2ccc(/C=N/Nc3nc4ccccc4s3)cc2)cc1`, for which the GI50 is greater than 100 µM and the TGI is greater than 100 µM.
The compound `N#Cc1cnn2ccn(C3OC(COC(=O)c4ccccc4)C(OC(=O)c4ccccc4)C3OC(=O)c3ccccc3)c12` (centres undefined) came in with a TGI greater than 21.5 µM.
Compound `C[C@]12CCC(=O)C=C1CC[C@@H]1C2CC[C@]2(C)NC(=O)C(C#N)CC12` (some centres undefined) gave a TGI greater than 100 µM.
Compound `CN(C)c1ccc2c(c1)oc(=O)c1ccccc12` yielded a TGI of 20.3 µM.
`COC(=O)C(CC(=O)c1cc2c(cc1I)OCO2)Cc1cc(OC)c(OC)c(OC)c1I` (centres undefined) had a TGI greater than 100 µM.
In turn, `O=C(Nc1ccccc1[N+](=O)[O-])c1ccccc1` showed a TGI greater than 100 µM.
`COc1cc2c(cc1O)[C@H](Cc1ccc(Oc3cc(C[C@H]4c5cc(OC)c(OC)cc5CCN4C)ccc3OC)cc1)NCC2` showed a TGI of 34.6 µM.
With `Fc1ccc(-c2nn(-c3ccccc3)cc2-c2nc3ccccc3o2)cc1`, the GI50 is 3.29 µM and the TGI came to 9.26 µM.
The compound `CN(C)S(=O)(=O)Nc1ccccn1` gave a TGI greater than 100 µM.
Turning to `CN(C)CCNC(=O)c1cccc2nc3c(Cl)cccc3nc12`, the TGI was greater than 100 µM.
Take `COc1nc2c(cc1S(=O)(=O)c1ccccc1)CCc1c-2cnn1-c1ccccc1Cl`: the GI50 is 4.98 µM and the TGI is greater than 100 µM.

Another test concerns TK-10 renal. Kind of test: NCI tumour cell line growth inhibition, 48 h.
Regarding `NC1(CCCCCCCCCCC(=O)O)CNCCNCCNCCNC1`, the TGI is greater than 100 µM.
In turn, `C1CN2N3CCCC23C1` (centres undefined) showed a TGI greater than 100 µM.
Consider `CC[n+]1ccc2c(c1)C(=O)c1nccc3c1c-2nc1ccccc13`, for which the GI50 is 4.77 µM and the TGI amounted to 16.8 µM.
On the same counts, the results for `NNC(=O)c1cnn(-c2ccnc3c(C(F)(F)F)cccc23)c1N` are greater than 100 µM and greater than 100 µM.
With `CC(=O)OCCc1cccnc1/C=N/O`, the TGI is greater than 100 µM.
Regarding `Cc1c(Cl)cccc1Nc1ncccc1C(=O)O`, the GI50 was greater than 100 µM and the TGI is greater than 100 µM.
For `CCC1CCC2CCCC(C)N12` (centres undefined), the TGI was greater than 100 µM.
As to `CN(C)c1ccc(/C=C2\C[N+](C)(C)C/C(=C\c3ccc(N(C)C)cc3)C2=O)cc1`, the TGI was greater than 100 µM.
Take `O=C1CC[C@H]2CNC(=O)C[C@H]2C1`: the TGI was greater than 100 µM.
Consider `C#CC(C)(C)Oc1cc(O)c2c(=O)c3ccccc3n(C)c2c1`, for which the TGI was greater than 100 µM.
Regarding `COc1cc2c(NCCCCCCO[N+](=O)[O-])ncnc2c(OC)c1OC`, the TGI is 49.4 µM.
For `CN1CCCNCCN(CCc2ccccn2)CCCN(C)CC1`, the TGI is greater than 100 µM.
In the case of `COc1ccc(CNC(=O)COc2ccc(/C=N/Nc3nc4ccccc4s3)cc2)cc1`, the GI50 is 3.49 µM and the TGI amounted to 16.3 µM.
For the compound `N#Cc1cnn2ccn(C3OC(COC(=O)c4ccccc4)C(OC(=O)c4ccccc4)C3OC(=O)c3ccccc3)c12` (centres undefined), the TGI is greater than 31.6 µM.
Compound `C[C@]12CCC(=O)C=C1CC[C@@H]1C2CC[C@]2(C)NC(=O)C(C#N)CC12` (some centres undefined) returned a TGI greater than 100 µM.
As to `CN(C)c1ccc2c(c1)oc(=O)c1ccccc12`, the TGI came to 40 µM.
Compound `COC(=O)C(CC(=O)c1cc2c(cc1I)OCO2)Cc1cc(OC)c(OC)c(OC)c1I` (centres undefined) displayed a TGI greater than 100 µM.
Compound `O=C(Nc1ccccc1[N+](=O)[O-])c1ccccc1` displayed a TGI greater than 100 µM.
In turn, `CN(C)S(=O)(=O)Nc1ccccn1` showed a TGI greater than 100 µM.
Compound `CN(C)CCNC(=O)c1cccc2nc3c(Cl)cccc3nc12` had a TGI greater than 54.8 µM.

The values above are taken from PubChem BioAssay (NCI).
